Consider 5 compounds from PMC6465774 (Frontiers in Pharmacology, 2019).

In one data set the target is T1, MOR (Rattus norvegicus, UniProt P33535).
T1 construct: incubating 50–100 μg of membrane protein of lumbar dorsal horn with 0.1- 4 nM; from tissue; host or cells: rat lumbar (L3-5) dorsal spinal cord / dorsal horn membranes, diabetic and control rats
The data set is described as follows: [3H]DAMGO saturation binding in dorsal spinal cord membranes.

For data set [1], the system named is gastric emptying in weight-matched control rats. Particulars: 0.1 mg/kg s.c. 30 min before methylcellulose, weight-matched control animals, n = 7. As to the method:
After 20 min the rats were sacrificed and the stomachs were removed after clamping the pylorus and cardia. […] Gastric emptying (%) was calculated as follows: [1 – (absorbance of sample / maximal absorbance)] × 100. Maximal absorbance was measured by processing the test meal alone, as described above.
In a separate experiment, weight match animals were treated either with saline, or with clonidine (0.1 mg/kg), an alpha2 adrenoceptor agonist and well-known inhibitor of gastric emptying, subcutaneously 30 min before the methylcellulose administration.

Data set [2] deals with STZ treated diabetic and weight matched non-diabetic rats (paw pressure withdrawal threshold). Conditions: rat, in vivo.
A further data set relates to respiratory functions. Particulars: dose of 253 nmol/kg; ref our previous work; cited from earlier work.
For data set [3], the system named is STZ treated diabetic rats with allodynia. Particulars: rat, in vivo.
For data set [4], the system named is STZ treated neuropathic rats. The data set is described as follows: Antagonist effect of co-administered NAL-M on the antiallodynic effect of s.c. opioids (DPA). Type of data set: in vivo, rat.
In the next data set the test system is STZ treated animals. More on the design: method as in Yamamoto et al., 2009. Conditions: doses up to 10 mg/kg (approximately 31 μmol/kg), 7 weeks following STZ treatment; ref Yamamoto et al., 2009; cited from earlier work.

Structures can show the parent of a compound that is named as a salt. A value given as a limit tells only on which side of the number the result lay.

T1 sequence (P33535 whole entry): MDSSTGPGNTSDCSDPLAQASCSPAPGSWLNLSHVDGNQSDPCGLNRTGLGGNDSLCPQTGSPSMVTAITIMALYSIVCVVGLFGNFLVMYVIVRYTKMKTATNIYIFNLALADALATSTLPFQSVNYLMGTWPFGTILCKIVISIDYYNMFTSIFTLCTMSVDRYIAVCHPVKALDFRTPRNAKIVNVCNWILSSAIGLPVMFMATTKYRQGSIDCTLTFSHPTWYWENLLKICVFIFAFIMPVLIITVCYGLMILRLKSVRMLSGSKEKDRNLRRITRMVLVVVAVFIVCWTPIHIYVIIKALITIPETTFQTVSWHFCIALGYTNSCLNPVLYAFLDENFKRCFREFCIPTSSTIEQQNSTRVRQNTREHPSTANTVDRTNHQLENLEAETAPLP

In the case of `C[C@@H](NC(=O)[C@@H](N)Cc1ccc(O)cc1)C(=O)NCC(=O)N(C)[C@@H](Cc1ccccc1)C(=O)NCCO` [DAMGO, Tyr-D-Ala-Gly-(NMe)Phe-Gly-ol], the “Bmax of [3H]DAMGO binding, controls” value at MOR (dorsal horn of control rats) is listed as 23.55 ± 4.36 fmol/mg. Moreover, the “Bmax of [3H]DAMGO binding, diabetic rats” value at MOR (dorsal horn of diabetic rats) is 13.11 ± 1.85 fmol/mg.

`Clc1cccc(Cl)c1N=C1NCCN1` [clonidine, clonidine-hydrochloride] had a gastric emptying in data set [1] of 55 ± 2%.

On to `CO[C@@]12C=C[C@H](OS(=O)(=O)O)[C@@H]3Oc4c(O)ccc5c4[C@@]31CCN(C)[C@@H]2C5` [14-O-MeM6SU, 14-O-methylmorphine-6-O-sulfate], for which, in data set [2], the “times higher potency than morphine in diabetic conditions based on ED30 values” is recorded as 48 times. Also, in data set [2] (sc), the “ED30 (effective dose producing 30% effect), diabetic animals” value is given as 434 nmol/kg; the “ED30 (effective dose producing 30% effect), non-diabetic animals” value turned out to be 335 nmol/kg; the “antinociceptive action in naïve rats at 253 nmol/kg” value was “failed to show any significant antinociceptive action”; the “dose inducing significant antinociceptive action in naïve (weight matched) rats” value came out at 506 nmol/kg. The “time of peak antinociceptive effect” value in data set [2] (sc) was 60 min. Besides, the respiratory depression result in the data set with respiratory functions is “no respiratory depression”. In addition, the “antiallodynic effect at 12th week of diabetes at the lowest antiallodynic dose” value in data set [3] is “produced antiallodynic effects”. In addition, in data set [3] (sc), the “antiallodynic action in diabetic rats, all tested doses” value was “significantly ameliorated the allodynia” and the “lowest dose that significantly attenuated the allodynia (lowest antiallodynic dose)” value was found to be 253 nmol/kg.

Regarding `C=CC[N+]1(C)CC[C@]23c4c5ccc(O)c4O[C@H]2C(=O)CC[C@@]3(O)[C@H]1C5` (some centres unmarked) [NAL-M, Naloxone methiodide], in data set [4] (NAL-M 10.6 μmol/kg s.c., co-administered with s.c. 14-O-MeM6SU or morphine), the “effect of co-administered NAL-M on the antiallodynic action of 14-O-MeM6SU and morphine” value is given as “failed to alter the antiallodynic action”. The “effect of NAL-M alone” value in data set [4] (NAL-M alone, n = 5, data not shown) is recorded as “no effect”.

`CN1CC[C@]23c4c5ccc(O)c4O[C@H]2[C@@H](O)C=C[C@H]3[C@H]1C5` [Morphine, morphine hydrochloride]: the ED30diabetic/ED30non-diabetic in data set [2] is on record as 7. For the same compound, in data set [2] (sc), the “ED30 (effective dose producing 30% effect), diabetic animals” value amounted to 20692 nmol/kg; the “ED30 (effective dose producing 30% effect), non-diabetic animals” value is on record as 6589 nmol/kg; the “dose inducing significant antinociceptive action in naïve (weight matched) rats” value was no less than 2500 nmol/kg; the “time of peak antinociceptive effect” value is reported as 30 min. In the data set with STZ treated animals, the “effectiveness of morphine in doses up to 10 mg/kg” value is “ineffectiveness”. The “antiallodynic effect at 12th week of diabetes at the lowest antiallodynic dose” value in data set [3] is recorded as “produced antiallodynic effects”. For the same compound, the “lowest dose that significantly attenuated the allodynia (lowest antiallodynic dose)” value in data set [3] (sc) is reported as 40000 nmol/kg.
